These results are taken from US10822323B2, “Acid labile surfactants” (Waters Technologies Corporation, priority 2018, dated 2020).

The nature of the data set: Dissolution study of hydrophobic moieties in acetonitrile / 20 mM ammonium bicarbonate buffer solutions. It is filed as physicochemical. As to conditions: for Observed Solubility: 21° C.; for solubility: 21 °C, aqueous with cosolvent or surfactant or cyclodextrin, thermodynamic from solid. As for the experimental part:
A dissolution study was performed on compounds 3 (commercially available—Sigma Aldrich P/N 172839 99%) 6, and 8 (Synthesis described above) at 21° C. in different buffer solutions containing a mixture of standard chromatographic solvents, e.g., acetonitrile and 20 mM aqueous […]. 20 mM aqueous ammonium bicarbonate was made by dissolving 474 mg ammonium bicarbonate in 300 mL MiliQ water.

The mark [1] stands for this setting: 10% acetonitrile buffer solution, stated weight in stated buffer volume (3: 180 mL; 6: 120 mL; 8: 24 mL).
Where [2] appears, read: 30% acetonitrile buffer solution, stated weight in stated buffer volume (3: 50 mL; 6: 10 mL; 8: 1.4 mL).
Where [3] appears, read: 10 mL acetonitrile and 90 mL 20 mM ammonium bicarbonate (10% acetonitrile).
The mark [4] stands for this setting: 30 mL acetonitrile and 70 mL 20 mM ammonium bicarbonate (30% acetonitrile).

Molecules are shown by their SMILES. Values after ≈ are worked out from the molar mass of the structure shown.

For the compound `CCCCCCCCCCCC(C)=O` [Compound 3, reference compound], the “Observed Solubility” value is given as “At 6 mg: Not dissolved” under setting [1] and “At 30 mg: Not dissolved” under setting [2]. Besides, the solubility is below 30 µg/mL under setting [3] and below 1000 µg/mL under setting [4].
In the case of `CCCCCCCCCCCOCC(O)CO` (stereo not drawn) [Compound 6, 3-(undecyloxy)-1,2-propanediol], the “Observed Solubility” value is, setting by setting: under setting [1], “At 6 mg: Not dissolved”; (30% acetonitrile buffer solution, stated weight in stated buffer volume (3: 50 mL; 6: 10 mL; 8: 1.4 mL), 70 mg in 10 mL buffer) “At 70 mg: Dissolved”; (30% acetonitrile buffer solution, stated weight in stated buffer volume (3: 50 mL; 6: 10 mL; 8: 1.4 mL), 90 mg in 10 mL buffer) “At 90 mg: Not dissolved”. Further, the solubility is, setting by setting: under setting [3], below 50 µg/mL; under setting [4], around 8000 µg/mL (≈ 32.5 mM).
On to `CCCCCCCCCOCC(O)CO` (stereo not drawn) [Compound 8, 3-nonoxypropane-1,2-diol], for which, under setting [2], the “Observed Solubility” value was “At 200 mg: Dissolved”. The solubility under setting [3] is around 500 µg/mL (≈ 2.29 mM) and the solubility under setting [4] was around 140000 µg/mL (≈ 641 mM).

Usually solubility stands for how much of the substance goes into solution per volume. Low readings indicate a poorly soluble substance, high ones a readily soluble substance.
